# Assay results as given in PubChem BioAssay (NCI).
# “And” between values parts separate entries of the source, which are not always exact repeats. Equal values may be shown once.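 GI50 marks 50% less growth. At the TGI there is no net growth.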
# Legend:
# Experiment in all cases: NCI anticancer screen, dose series, 384-well format
# MDA-MB-468 breast = test system: MDA-MB-468 breast
# HOP-92 NSCLC = test system: HOP-92 NSCLC
# NCI-H226 lung = test system: NCI-H226 lung
# HCT-116 colon = test system: HCT-116 colon
# OVCAR-8 ovarian = test system: OVCAR-8 ovarian
# PC-3 prostate = test system: PC-3 prostate
# SW-620 colon = test system: SW-620 colon
# IGROV1 ovarian = test system: IGROV1 ovarian
# SK-OV-3 ovarian = test system: SK-OV-3 ovarian
# SF-268 CNS = test system: SF-268 CNS
# COLO 205 colon = test system: COLO 205 colon
# CAKI-1 renal = test system: CAKI-1 renal
# NCI-H460 NSCLC = test system: NCI-H460 NSCLC
# HOP-62 NSCLC = test system: HOP-62 NSCLC
# OVCAR-3 ovarian = test system: OVCAR-3 ovarian
# ACHN renal = test system: ACHN renal
# SK-MEL-28 melanoma = test system: SK-MEL-28 melanoma
# UACC-257 melanoma = test system: UACC-257 melanoma
# MDA-MB-435 melanoma = test system: MDA-MB-435 melanoma
# UACC-62 melanoma = test system: UACC-62 melanoma
# HCT-15 colon = test system: HCT-15 colon
# SNB-19 CNS = test system: SNB-19 CNS
# A549 NSCLC = test system: A549 NSCLC
# K-562 leukemia = test system: K-562 leukemia
# HL-60(TB) leukemia = test system: HL-60(TB) leukemia
# SN12C renal = test system: SN12C renal
# SK-MEL-5 melanoma = test system: SK-MEL-5 melanoma
# HS 578T breast = test system: HS 578T breast
# NCI-H23 lung = test system: NCI-H23 lung
# 786-0 renal = test system: 786-0 renal
# EKVX NSCLC = test system: EKVX NSCLC
# DU-145 prostate = test system: DU-145 prostate
# SNB-75 CNS = test system: SNB-75 CNS
# MCF7 breast = test system: MCF7 breast
# M14 melanoma = test system: M14 melanoma
# MALME-3M melanoma = test system: MALME-3M melanoma
# A498 renal = test system: A498 renal
# SF-539 CNS = test system: SF-539 CNS
# SK-MEL-2 melanoma = test system: SK-MEL-2 melanoma
# KM12 colon = test system: KM12 colon
# MDA-MB-231 breast = test system: MDA-MB-231 breast
# OVCAR-4 ovarian = test system: OVCAR-4 ovarian
# OVCAR-5 ovarian = test system: OVCAR-5 ovarian
# UO-31 renal = test system: UO-31 renal
# U251 glioblastoma = test system: U251 glioblastoma
# SF-295 CNS = test system: SF-295 CNS
# BT-549 breast = test system: BT-549 breast
# HT29 colon = test system: HT29 colon
# NCI-H322M lung = test system: NCI-H322M lung
# TK-10 renal = test system: TK-10 renal
# RXF 393 renal = test system: RXF 393 renal
# T-47D breast = test system: T-47D breast
# NCI-H522 lung = test system: NCI-H522 lung
structure (smiles),measurement,setting,value
COc1ccc(C2=N[C@@H](c3ccc(Cl)cc3)[C@@H](c3ccc(Cl)cc3)N2C(=O)N2CCNC(=O)C2)c(OC(C)C)c1,GI50,MDA-MB-468 breast,12.4 µM and 11 µM and 11.5 µM
same,TGI,MDA-MB-468 breast,24.9 µM and 23 µM and 23.7 µM
same,GI50,HOP-92 NSCLC,15.2 µM and 13.4 µM and 11.8 µM
same,TGI,HOP-92 NSCLC,28.5 µM and 26.3 µM and 24.1 µM
same,TGI,NCI-H226 lung,23.7 µM and 2.47 µM and 3.4 µM
same,TGI,HCT-116 colon,24 µM and 14.5 µM and 12.8 µM
same,GI50,OVCAR-8 ovarian,15.6 µM and 11.9 µM and 10.5 µM
same,TGI,OVCAR-8 ovarian,29.1 µM and 24.4 µM and 22.3 µM
same,GI50,PC-3 prostate,12.5 µM and 13 µM and 12.6 µM
same,TGI,PC-3 prostate,25.1 µM and 25.8 µM and 25.2 µM
same,GI50,SW-620 colon,13.1 µM and 11 µM and 3.58 µM
same,TGI,SW-620 colon,26 µM and 23.3 µM and 19.4 µM
same,GI50,IGROV1 ovarian,13.5 µM and 10.9 µM and 7.76 µM
same,TGI,IGROV1 ovarian,26.5 µM and 23 µM and 21 µM
same,GI50,SK-OV-3 ovarian,19.7 µM and 16 µM and 12.9 µM
same,TGI,SK-OV-3 ovarian,34 µM and 29.6 µM and 25.7 µM
same,GI50,SF-268 CNS,16.7 µM and 13.4 µM and 10.7 µM
same,TGI,SF-268 CNS,30.4 µM and 26.4 µM and 22.6 µM
same,GI50,COLO 205 colon,15.9 µM and 16.8 µM and 14.9 µM
same,TGI,COLO 205 colon,29.5 µM and 30.7 µM and 28.3 µM
same,TGI,CAKI-1 renal,21.1 µM and 11.9 µM and 12.4 µM
same,GI50,NCI-H460 NSCLC,15.3 µM and 10.4 µM and 8.98 µM
same,TGI,NCI-H460 NSCLC,28.9 µM and 22.5 µM and 21.3 µM
same,GI50,HOP-62 NSCLC,15.6 µM and 2.36 µM and 5.46 µM
same,TGI,HOP-62 NSCLC,29.1 µM and 19.6 µM and 20.5 µM
same,GI50,OVCAR-3 ovarian,12.8 µM and 12 µM and 12.1 µM
same,TGI,OVCAR-3 ovarian,25.5 µM and 24.6 µM
same,TGI,ACHN renal,24.2 µM and 11.4 µM and 11.2 µM
same,GI50,SK-MEL-28 melanoma,15.6 µM and 18.7 µM and 18 µM
same,TGI,SK-MEL-28 melanoma,29 µM and 32.9 µM and 32 µM
same,GI50,UACC-257 melanoma,15.5 µM and 5.8 µM and 8.65 µM
same,TGI,UACC-257 melanoma,28.9 µM and 18 µM and 20.8 µM
same,GI50,MDA-MB-435 melanoma,13.8 µM and 16.4 µM and 15.8 µM
same,TGI,MDA-MB-435 melanoma,26.8 µM and 30.1 µM and 29.4 µM
same,TGI,UACC-62 melanoma,21.8 µM and 8.99 µM and 11.3 µM
same,GI50,HCT-15 colon,16 µM and 16.1 µM and 14 µM
same,TGI,HCT-15 colon,29.7 µM and 30.1 µM and 27.1 µM
same,GI50,SNB-19 CNS,14.3 µM and 14.6 µM
same,TGI,SNB-19 CNS,27.4 µM and 27.9 µM
same,GI50,A549 NSCLC,14600 nM and 2280 nM and 2230 nM
same,TGI,A549 NSCLC,27.8 µM and 14.7 µM and 13.8 µM
same,GI50,K-562 leukemia,11.4 µM and 4.93 µM and 2.55 µM
same,TGI,K-562 leukemia,23.9 µM and 20.3 µM and 17 µM
same,GI50,HL-60(TB) leukemia,2.99 µM and 3.06 µM and 3.55 µM
same,TGI,HL-60(TB) leukemia,12.9 µM and 15.7 µM and 15.8 µM
same,GI50,SN12C renal,15.5 µM and 17.2 µM and 16.1 µM
same,TGI,SN12C renal,28.9 µM and 31 µM and 29.6 µM
same,GI50,SK-MEL-5 melanoma,14.3 µM and 8.52 µM and 7.04 µM
same,TGI,SK-MEL-5 melanoma,27.5 µM and 20.6 µM and 20 µM
same,GI50,HS 578T breast,13.4 µM and 12.8 µM and 12.2 µM
same,TGI,HS 578T breast,26.2 µM and 25.5 µM and 24.7 µM
same,GI50,NCI-H23 lung,14.5 µM and 15.1 µM
same,TGI,NCI-H23 lung,27.6 µM and 28.5 µM
same,GI50,786-0 renal,14.7 µM and 14 µM and 11.2 µM
same,TGI,786-0 renal,27.9 µM and 27.1 µM and 23.3 µM
same,GI50,EKVX NSCLC,15 µM and 15.3 µM and 14.6 µM
same,TGI,EKVX NSCLC,28.3 µM and 28.7 µM and 27.8 µM
same,GI50,DU-145 prostate,15.2 µM and 15.7 µM
same,TGI,DU-145 prostate,28.6 µM and 29.3 µM and 28.7 µM
same,GI50,SNB-75 CNS,13.3 µM and 11.9 µM and 11.6 µM
same,TGI,SNB-75 CNS,26.1 µM and 24.2 µM and 23.9 µM
same,GI50,MCF7 breast,3430 nM and 1730 nM and 718 nM
same,TGI,MCF7 breast,16.8 µM and 8.38 µM and 8.52 µM
same,GI50,M14 melanoma,13.1 µM and 10 µM and 11.1 µM
same,TGI,M14 melanoma,25.8 µM and 21.6 µM and 23.1 µM
same,GI50,MALME-3M melanoma,8.12 µM and 2.75 µM and 5.41 µM
same,TGI,MALME-3M melanoma,20.3 µM and 19.3 µM and 19.7 µM
same,TGI,A498 renal,23.1 µM and 13.1 µM and 13.5 µM
same,GI50,SF-539 CNS,16.1 µM and 13.7 µM and 10.6 µM
same,TGI,SF-539 CNS,29.6 µM and 26.8 µM and 22.4 µM
same,GI50,SK-MEL-2 melanoma,18.7 µM and 18.1 µM and 14.5 µM
same,TGI,SK-MEL-2 melanoma,32.7 µM and 32.1 µM and 27.7 µM
same,TGI,KM12 colon,27.8 µM and 12.7 µM and 12.3 µM
same,GI50,MDA-MB-231 breast,17 µM and 14.1 µM and 12.9 µM
same,TGI,MDA-MB-231 breast,30.8 µM and 27.1 µM and 25.6 µM
same,GI50,OVCAR-4 ovarian,14 µM and 14.2 µM and 13.8 µM
same,TGI,OVCAR-4 ovarian,27 µM and 27.4 µM and 26.8 µM
same,GI50,OVCAR-5 ovarian,16.9 µM and 17.6 µM and 16.7 µM
same,TGI,OVCAR-5 ovarian,30.6 µM and 31.8 µM and 30.5 µM
same,GI50,UO-31 renal,11.2 µM and 4.63 µM and 5.1 µM
same,TGI,UO-31 renal,23.3 µM and 15.8 µM and 16 µM
same,GI50,U251 glioblastoma,14.7 µM and 13.7 µM and 10.9 µM
same,TGI,U251 glioblastoma,28 µM and 26.7 µM and 22.9 µM
same,GI50,SF-295 CNS,15.3 µM and 14.5 µM and 12.9 µM
same,TGI,SF-295 CNS,28.7 µM and 27.7 µM and 25.7 µM
same,GI50,BT-549 breast,16.6 µM and 16.9 µM
same,TGI,BT-549 breast,30.3 µM and 30.2 µM and 30.6 µM
same,GI50,HT29 colon,11.8 µM and 13.4 µM and 10.5 µM
same,TGI,HT29 colon,24.2 µM and 26.3 µM and 22.3 µM
same,GI50,NCI-H322M lung,19.3 µM and 17.7 µM and 13.7 µM
same,TGI,NCI-H322M lung,33.6 µM and 31.6 µM and 26.7 µM
same,GI50,TK-10 renal,15.1 µM and 13.5 µM and 11.3 µM
same,TGI,TK-10 renal,28.5 µM and 26.4 µM and 23.5 µM
same,TGI,RXF 393 renal,24.8 µM and 16.3 µM and 14.9 µM
same,GI50,T-47D breast,17 µM and 14.7 µM and 13.8 µM
same,TGI,T-47D breast,30.7 µM and 28 µM and 26.7 µM
same,GI50,NCI-H522 lung,14.1 µM and 15 µM and 14.8 µM
same,TGI,NCI-H522 lung,27.1 µM and 28.3 µM and 28 µM
